In series [1] the test system is human breast cancer MCF-7 cell line. The series can be described thus: AlamarBlue cytotoxicity, 2,2′-BPBPA series, MCF-7. The class given is cell-based. The method, then: (§1) Cell culture methods. MCF-7 and MDA-MB-231 were incubated using DMEM at 37° C. in 5% CO2. The hFOB 1.19 cell lines were incubated with DMEM: F12 at 34° C. in 5% CO2.
(§2) Cell lines were supplemented using 10% FBS and 1% Pen-Strep. The media was replaced twice per week. Cell passages were carried out at 80% confluency.
(§3) Cell-based assays. Cell lines were seeded in 96 well plates at a density of 5x 10^3 cells/mL and incubated for 24 h before treatment. Cells were treated with 100 μL of 2,2′-BPBPA (0-400 μM), unloaded and loaded nano-Ca@2,2′-BPBPA (6.3-50 μM) for 24, 48, and 72 h.
(§4) Control groups were treated with media (DMEM or DMEM: F12) supplemented with 1% Pen-Strep. Cell viability was determined by employing AlamarBLue@. The media was replaced with 100 μL of 10% AlamarBlue® solution. After 24 h of incubation, the fluorescence was assessed at )max of 560 nm for excitation and 590 nm for emission.
(§5) Cell culture methods. MCF-7 and MDA-MB-231 were incubated using DMEM at 37° C. in 5% CO2. The hFOB 1.19 cell lines were incubated with DMEM: F12 at 34° C. in 5% CO2. Cell lines were supplemented using 10% FBS and 1% Pen-Strep. The media was replaced twice times per week. Cell passages were carried out at 80% confluency.
Seeding. Cell lines were seeded in 96 well plates at a density of 5×10^3 cells/mL; cells were incubated for 24 h before each treatment.
Treatment. Cell lines were treated with 100 μL of 2,2′-BPBPA (0-400 μM), unloaded and loaded nano-Ca@2,2′-BPBPA (6.3-50 μM). Control groups were treated with media (DMEM or DMEM: F12) supplemented with 1% Pen-Strep. All cell-based assays were conducted for 24, 48, and 72 h of treatment. Experiments were performed in triplicate.
AlamarBlue@assay. To determine the cell viability, the media was removed and replaced with 100 μL of 10% AlamarBlue® solution. The 96 well plates were incubated for 4 h before the measurements. Then, the fluorescence was assessed at 560 nm of excitation and λmax 590 nm of emission. The IC50 curves for MCF-7, MDA-MB-231, and hFOB 1.19 cell lines treated with 2,2′-BPBPA are presented in FIGS. 211A-211C, 212A-212C, and 213A-213C.

The nature of series [2]: Dissolution of 2,2′-BPBPA-based BPCCs in PBS (2,2′-BPBPA released, 299 nm). The conditions noted are these: 37° C., 150 rpm, mean n = 2. The class given is physicochemical. The method, then:
Dissolution experiment. In a 250 mL beaker was tranfer 100 mL of PBS or FaSSGF.
Subsequently, this solution was allowed to reach 37° C. at 150 rpm. Then, individually ˜10.0 mg of powdered 2,2′-BPBPA-based BPCCs were added to the PBS or FaSSGF solution. Aliquots (1 mL) were taken out at different time points (0, 1, 3, 6, 24, 48, and 72 h) and diluted with PBS or FaSSGF in 5 mL volumetric flasks. An aliquot (1 mL) was taken out before adding the 2,2′-BPBPA-based BPCCs to record the first time point (0 h). The dissolution experiments were performed in duplicate for each 2,2′-BPBPA-based BPCC. The absorbance of the 2,2′-BPBPA released from these materials was assessed at 299 (PBS) and 318 (FaSSGF) nm.
The release of 2,2′-BPBPA from the coordination complexes was assessed in physiological conditions (PBS, pH=7.40 and FaSSGF, pH=1.60). The absorbance of the supernatant was measured at the lambda of maximum absorption to determine the quantity of 2,2′-BPBPA release over time in PBS (λmax=299 nm) and FaSSGF (λmax=318 nm) at 37° C. It was observed that the 2,2′-BPBPA-based BPCCs release from 8 to 13% of 2,2′-BPBPA in neutral conditions (FIG. 160A). […] In acidic conditions, these 2,2′-BPBPA-based BPCCs release from 64 to 90% of 2,2′-BPBPA. The 2,2′-BPBPA-Ca (90%) and 2,2′-BPBPA-Zn (84%) presented the highest release of the ligand contrasted with 2,2′-BPBPA-Mg (64%) in FaSSGF (FIG. 160B). In particular, the 2,2′-BPBPA-Ca collapsed almost completely, indicating the possible ability of this material to degrade once in the acid environment of metastatic cancerous cells and be able to release potential cargo drugs.
Dissolution experiment. In a 250 mL beaker was tranfer 100 mL of PBS. Subsequently, this solution was allowed to reach 37° C. at 150 rpm. Then, individually ˜10.0 mg of powdered 2,2′-BPBPA-based BPCCs were added to the PBS solution. Aliquots (1 mL) were taken out at different time points (0, 1, 3, 6, 24, 48, and 72 h) and diluted with PBS in 5 mL volumetric flasks. An aliquot (1 mL) was taken out before adding the 2,2′-BPBPA-based BPCCs to record the first time point (0 h). The absorbance of the 2,2′-BPBPA released from these materials was assessed at 299 nm. The dissolution experiments were performed in duplicate for each 2,2′-BPBPA-based BPCC. The percentage (%) of 2,2′-BPBPA released in PBS from these complexes is illustrated in Table 30.

Series [3] concerns human osteoblast hFOB 1.19 cell line. The series can be described thus: AlamarBlue cytotoxicity, 2,2′-BPBPA series, hFOB 1.19. In kind it is cell-based. The method, then:
as §1, §2, §3, §4, §5
Seeding. […]
AlamarBlue@assay. […] Then, the fluorescence was assessed at 560 nm of excitation and λmax 590 nm of emission. […]

The conditions of series [4]: PBS pH 7.40.
Series [5] concerns human breast cancer MDA-MB-231 cell line. The conditions noted are these: previously reported; cited from earlier work.

Structures are written as SMILES. Bounds are passed on as bounds.

Take `O=P(O)(O)c1ccc(-c2ccc(P(=O)(O)O)cn2)nc1` [2,2′-BPBPA, 2,2′-bipyridine-5,5′-bisphosphonic acid]: the half-maximal inhibitory concentration (IC50) in series [1] (Homo sapiens, MCF7, 72 h) was 134 ± 2 µM; in series [3] (Homo sapiens, Osteoblast, 72 h), more than 188 µM. For the same molecule, the “% Released (2,2′-BPBPA released in PBS)” value amounted to 0% in series [2] (0 h (aliquot before addition)); 88% in series [2] (1 h); 90% in series [2] (3 h); 91% in series [2] (6 h); 97% in series [2] (24 h); 97% in series [2] (48 h). Moreover, in series [2] (72 h), the “% Released (2,2′-BPBPA released in PBS)” value turned out to be 97%.

`O=P(O)(O)C(O)(Cc1cccnc1)P(=O)(O)O` [RISE, Monosodium risedronate hemipentahydrate]: in series [4], the “time to reach maximum dissolution” value came to 30 min.

In the case of `N#Cc1ccc(C(c2ccc(C#N)cc2)n2cncn2)cc1` [LET, letrozole], the “% RCL” value is given as “about 100±2%” in series [1] (6.3 μM, 24 h); approximately 79 ±1% in series [1] (6.3 μM, 48 h); approximately 74±3% in series [1] (6.3 μM, 72 h); 100±2% in series [1] (12.5 μM, 24 h); 71±3% in series [1] (12.5 μM, 48 h); 68±2% in series [1] (12.5 μM, 72 h). The “% RCL” value in series [1] (25 μM, 24 h) is on record as 100±1%; in series [1] (25 μM, 72 h), 46±2%; in series [1] (50 μM, 24 h) it was 99±1%; in series [1] (50 μM, 72 h) it was 40±1%; in series [3] (6.3-50 μM, 24, 48, 72 h) it was approximately 99%. Further, the IC50 in series [5] is more than 200 µM.
